Like-named read-outs stand apart in the source and are kept apart here.
Key:
Assay type in all cases: cell-based, Staphylococcus aureus
S. aureus SH1000 = test: Planktonic MIC by broth microdilution (BSAC guidelines)
Procedure: (§1) Methods: MICs were determined for planktonic cultures by broth microdilution according to British Society for Antimicrobial Chemotherapy (BSAC) guidelines. Biofilm MICs (bMIC) and minimum biofilm eradication concentrations (MBECs) were determined using the Calgary biofilm device. The effect of Compound 10 on the viability of cold culture cells was determined by growing S. aureus SH1000 to early exponential phase at 37° C. and resuspending the cells in pre-chilled media, where they were maintained in the presence and absence of Compound 10 and control agents. The effect of Compound 10 on slow growing cells expressing the stringent response was also determined by growing cultures to early log phase and the stringent response induced by the addition of the isoleucyl-tRNA synthetase inhibitor mupirocin. Compound 10 and control agents were then added and samples recovered for viable cell determinations.

[1] = test system: S. aureus SH1000 cold cultures; test: Time-kill against cold cultures (4° C.); details: for viability / bactericidal activity in time-kill (in words): cold culture held at 4° C. for 5 hours, agents at 4×MIC
Procedure: as §1
The effect of XF drugs on the viability of cold culture cells was determined by growing S. aureus SH1000 to early exponential phase at 37° C., harvesting the cells by centrifugation (5,000×g, 10 min.) and resuspending them in pre-chilled media where they were maintained in the presence and absence of XF drugs and control agents for 5 hours. […] (FIG. 11).
(§2) The anti-staphylococcal activities of Compound 10, Compound 12 and a range of comparator agents against slow-growing cultures of Staphylococcus aureus were studied using standard time-kill methodology (Oliva et al. 2003, Hobbs et al. 2008). Staphylococcus aureus SH1000 cultures were grown to early exponential phase (OD600 nm of 0.2) in Mueller-Hinton broth (MHB) before being exposed to antibacterial agents at 4×MIC. An untreated culture served as the negative control. The experiments were undertaken in triplicate.
Cold cultures were prepared by growing SH1000 cells to early exponential phase (OD600 nm of 0.2) at 37° C. Cultures were then centrifuged and the cell pellet was resuspended in MHB pre-chilled to 4° C. The killing kinetics of antimicrobial agents were studied as described in the section above, with the exception that cultures were maintained at 4° C. over the 5 hour sampling period.

[2] = test system: S. aureus SH1000 stationary phase cultures; test: Time-kill against stationary phase cultures; details: early, mid and late stationary phase (24, 48, 72 hours), 10^8 bacteria/mL in spent medium
Procedure: The anti-staphylococcal activities of Compound 10, Compound 12 and a range of comparator agents against stationary phase cultures of Staphylococcus aureus were studied using standard time-kill methodology (Oliva et al., 2003, Hobbs et al., 2008). A growth curve was constructed to identify when SH1000 cultures enter and leave stationary phase. 50 mL of Mueller-Hinton broth (MHB) was inoculated with 500 μL of Staphylococcus aureus SH1000 overnight culture and was maintained at 37° C. with agitation for 8 days. The culture turbidity at OD600 nm was measured at regular intervals using a Jenway 6300 spectrophotometer with a 1 cm light path (Jenway, Essex, UK). Staphylococcus aureus SH1000 cultures were grown to early, mid and late stationary phase at 37° C. by incubation for 24, 48 and 72 hours respectively. Cultures were centrifuged, the supernatant was removed, and then a portion of the cell pellet was resuspended in the counterpart supernatant to an OD600 nm of 0.2 (10^8 bacteria/mL). A time-kill assay was then performed on these stationary phase suspensions to study the effects of antimicrobial agents on bacterial cell viability. An untreated culture served as the negative control. The experiments were undertaken in triplicate. […]

[3] = test system: stringent S. aureus SH1000 cultures; test: Time-kill against cultures expressing the stringent response (induced with mupirocin); details: for viability / bactericidal activity in time-kill (in words): stringent response induced with mupirocin, agents at 4×MIC
Procedure: as §1
When nutrients become limiting for growth bacteria adjust their metabolism from one that supports growth to one that provides for long survival in the absence of nutrients. In many bacteria a key facilitator of this physiological switch, known as the stringent response, is accumulation of guanosine […] and pentaphosphate (Traxler et al., 2008). The antibiotic mupirocin is a strong inducer of the stringent response in S. aureus and effectively causes starvation of charged isoleucyl tRNA by potent inhibition of isoleucy ItRNA synthetase (IRS) (Oliva et al., 2003). The activity of XF drugs against S. aureus SH1000 prevented from growing by the addition of mupirocin (Oliva et al., 2003), was therefore examined (FIG. 10). As an alternative method for arresting growth, bacteria were suspended in cold growth medium (Mascio et al., 2007) and the bactericidal activity of XF drugs was also determined under these conditions (FIG. 11).
as §2
The antibiotic mupirocin is a strong inducer of the stringent response in S. aureus and causes starvation of charged isoleucyl tRNA by potent inhibition of isoleucyl tRNA synthetase (IRS) (Oliva et al. 2003, Cassels et al. 1995) Stringency was induced in SH1000 cultures by adding mupirocin (4 mg/L) to cells in the early exponential growth phase (OD600 nm of 0.2) (Oliva et al. 2003, Cassels et al. 1995). Cultures were incubated with mupirocin for 30 minutes before sampling began. Cultures were maintained at 37° C., and samples were taken at 30 minute intervals for 300 minutes, serially diluted in phosphate buffered saline (PBS) and diluted culture was spread on Mueller-Hinton agar and was incubated at 37° C. for 18-24 hours before the number of CFU were counted.

SMILES | MIC (S. aureus SH1000; Staphylococcus aureus, planktonic S. aureus SH1000 (Table 5), read-out: MIC) | MIC (S. aureus SH1000; planktonic S. aureus SH1000 (Table 6)) | drop in viability ([1]; cold culture (4° C.), 4×MIC, within 1 hour) | viability / bactericidal activity in time-kill (in words) [1] | bactericidal activity in time-kill (in words) [2] | drop in viability ([3]; stringent response cultures, 4×MIC, within 1 hour) | viability / bactericidal activity in time-kill (in words) [3] | MIC (S. aureus SH1000; Staphylococcus aureus, planktonic S. aureus SH1000 (Table 6), read-out: MIC)
C[N+](C)(C)CCCOc1ccc(-c2c3nc(cc4ccc([nH]4)c(-c4ccc(OCCC[N+](C)(C)C)cc4)c4nc(cc5ccc2[nH]5)C=C4)C=C3)cc1.[Cl-].[Cl-] [Compound 10, 5,15-bis-[4-(3-Trimethylammonio-propyloxy)-phenyl]-porphyrin dichloride] | 1 mg/L | 1 mg/L | 5 log | retained potent bactericidal activity | retained potent bactericidal activity | 5 log | retained potent bactericidal activity | 
C[N+](C)(C)CCCOc1cccc(-c2c3nc(cc4ccc([nH]4)c(-c4cccc(OCCC[N+](C)(C)C)c4)c4nc(cc5ccc2[nH]5)C=C4)C=C3)c1.[Cl-].[Cl-] [Compound 12, 5,15-bis-[3-(3-Trimethylammonio-propyloxy)-phenyl]-porphyrin dichloride] |  |  |  | retained potent bactericidal activity | retained potent bactericidal activity |  | retained potent bactericidal activity | 1 mg/L
